Data from the NIST ThermoML archive (doi:10.1021/acs.jced.6b00751).
± gives the expanded uncertainty stated by the source.

Conditions: 101.33 kPa, Liquid, Vibrating tube method

Row | Structure (SMILES) | mass density (298.15 K) [kg/m3] | mass density (313.15 K) [kg/m3] | mass density (333.15 K) [kg/m3] | mass density (353.15 K) [kg/m3]
1 | CCOS(=O)(=O)[O-].CCn1cc[n+](C)c1 [1-ethyl-3-methylimidazolium ethyl sulfate] | 1234.1 ± 18 | 1219.1 ± 18 | 1199.1 ± 27 | 1170.4 ± 39
2 | CCCCn1cc[n+](C)c1.F[P-](F)(F)(F)(F)F [1-butyl-3-methylimidazolium hexafluorophosphate] | 1369.9 ± 18 | 1350.4 ± 26 | 1325.2 ± 21 | 1288.4 ± 39
